Here are results for seven molecules from patent publication US20020002171A1, “Materials and methods for killing nematodes and nematode eggs” (priority 2000, published 2002).

The structures appear in SMILES notation.

The first experiment deals with Caenorhabditis elegans. The experiment can be described thus: C. elegans L1 nematicidal dose response in 96-well plates, 5 day visual score (Example 2; same procedure for Example 7, Table 3). The format is in vivo. More on the design: key to 5 Day Visual Score V1 / 5 Day Visual Score V2 / 5 Day Visual Score V3 / 5 Day Visual Score V4 / 5 Day Visual Score V6 / 5 Day Visual Score V5 / Initial HTS Run Visual Score / Follow-up HTS Run Visual Score: Dead: only stiff L1s (no movement); Dead (L4): worms are dead, but at a later larval stage; majority of worms are L1 (based on size) worms move when plate is tapped; majority of worms are L2 (based on size); majority of worms are L3 (based on size); majority of worms are L4 (based on size); AD: majority of worms are adult; #AD: 5 adult worms or less; B!: sterile (0-25 progeny); B: low broodsize (25-100 progeny); ˜B: moderate broodsize (100-250 progeny); <: reduced broodsize (250-500 progeny); OK: no effect (˜1000+ progeny). The note with it: Follow-up HTS run. In outline: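 L1 larvae, 20 per well in NGM with 1% E. coli HB101 and antibiotic/antimycotic, exposed to six 3-fold dilutions from 70 μM down to 0.3 μM (1.4% DMSO at top). Held at 20° C; viability scored visually under 100× dissecting microscope on day 5.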
As to `CN(CCc1ccccc1)c1nc(NCCc2ccc(F)cc2)ns1` [compound 243], the “Follow-up HTS Run % Run” value turned out to be 86%, the “Follow-up HTS Run Visual Score” value was “B (low broodsize (25-100 progeny))” and the “Follow-up HTS Run mOD” value is listed as 139 mOD.
For `CC1(C)CC(O)CC(C)(CNc2nsc(N3CCN(c4ccc(F)cc4)CC3)n2)C1` (centres unmarked) [compound 244] the same measures were 104%, “Dead” and 167 mOD.
The corresponding values for `CC1CC(C)CN(c2nc(NCc3c(F)cccc3F)ns2)C1` (centres unmarked) [compound 245] are 117%, “B! (sterile (0-25 progeny))” and 189 mOD.
As to `Fc1cccc(F)c1CNc1nsc(N2CCN(c3cccc(C(F)(F)F)c3)CC2)n1` [compound 246], the “Follow-up HTS Run % Run” value stood at 130% and the “Follow-up HTS Run mOD” value came to 209 mOD.
For `CC1CCN(c2nc(NCc3ccc(C(F)(F)F)cc3)ns2)CC1` [compound 247] the same measures were 105% and 169 mOD.
As for `CC1CC(C)CN(c2nc(NCc3ccc(C(F)(F)F)cc3)ns2)C1` (centres unmarked) [compound 248], the “Follow-up HTS Run % Run” value was 112%, the “Follow-up HTS Run Visual Score” value is on record as “L3/L4/AD/B!” and the “Follow-up HTS Run mOD” value was determined as 181 mOD.
Consider `CCN(CC)C(=O)C1CCCN(c2nc(NCc3ccc(C(F)(F)F)cc3)ns2)C1` (centres unmarked) [compound 249], for which the “Follow-up HTS Run % Run” value was determined as 112% and the “Follow-up HTS Run mOD” value was found to be 180 mOD.

Staying with this experiment, now noted: Initial HTS run.
For the molecule `CN(CCc1ccccc1)c1nc(NCCc2ccc(F)cc2)ns1` [compound 243], the “Initial HTS Run % Run” value amounted to 115%, the “Initial HTS Run Visual Score” value is “L4/AD/B!” and the “Initial HTS Run mOD” value was 127 mOD.
The corresponding values for `CC1(C)CC(O)CC(C)(CNc2nsc(N3CCN(c4ccc(F)cc4)CC3)n2)C1` (centres unmarked) [compound 244] are 125%, “Dead” and 138 mOD.
The corresponding values for `CC1CC(C)CN(c2nc(NCc3c(F)cccc3F)ns2)C1` (centres unmarked) [compound 245] are 103%, “B!-Few Eggs” and 113 mOD.
Consider `Fc1cccc(F)c1CNc1nsc(N2CCN(c3cccc(C(F)(F)F)c3)CC2)n1` [compound 246], for which the “Initial HTS Run % Run” value is given as 123%, the “Initial HTS Run Visual Score” value is “L3” and the “Initial HTS Run mOD” value is given as 135 mOD.
As to `CC1CCN(c2nc(NCc3ccc(C(F)(F)F)cc3)ns2)CC1` [compound 247], the “Initial HTS Run % Run” value was 91% and the “Initial HTS Run mOD” value turned out to be 100 mOD.
In the case of `CC1CC(C)CN(c2nc(NCc3ccc(C(F)(F)F)cc3)ns2)C1` (centres unmarked) [compound 248], the “Initial HTS Run % Run” value was determined as 99%, the “Initial HTS Run Visual Score” value is reported as “L3/L4/AD/B” and the “Initial HTS Run mOD” value worked out at 109 mOD.
Regarding `CCN(CC)C(=O)C1CCCN(c2nc(NCc3ccc(C(F)(F)F)cc3)ns2)C1` (centres unmarked) [compound 249], the “Initial HTS Run % Run” value was 98% and the “Initial HTS Run mOD” value worked out at 108 mOD.

Still in this experiment, the particulars now being: dose response, dilution V1, day 5.
Regarding `CC1(C)CC(O)CC(C)(CNc2nsc(N3CCN(c4ccc(F)cc4)CC3)n2)C1` (centres unmarked) [compound 244], the “5 Day Visual Score V1” value is listed as “Dead”.
As to `CC1CC(C)CN(c2nc(NCc3c(F)cccc3F)ns2)C1` (centres unmarked) [compound 245], the “5 Day Visual Score V1” value is listed as “L2/Dead(L3)”.
Still for that read-out and setting: for `Fc1cccc(F)c1CNc1nsc(N2CCN(c3cccc(C(F)(F)F)c3)CC2)n1` [compound 246] the value was “Dead”.

The same experiment, now with this note: dose response, dilution V2, day 5.
Regarding `CN(CCc1ccccc1)c1nc(NCCc2ccc(F)cc2)ns1` [compound 243], the “5 Day Visual Score V2” value is recorded as “B (low broodsize (25-100 progeny))”.
Still for that read-out and setting: for `CC1(C)CC(O)CC(C)(CNc2nsc(N3CCN(c4ccc(F)cc4)CC3)n2)C1` (centres unmarked) [compound 244] the value was “Dead”.
Turning to `CC1CC(C)CN(c2nc(NCc3c(F)cccc3F)ns2)C1` (centres unmarked) [compound 245], the “5 Day Visual Score V2” value is recorded as “#AD/˜B”.
The same measure, in the same setting: the same measure for `CC1CCN(c2nc(NCc3ccc(C(F)(F)F)cc3)ns2)CC1` [compound 247]: “˜B (moderate broodsize (100-250 progeny))”; for `CC1CC(C)CN(c2nc(NCc3ccc(C(F)(F)F)cc3)ns2)C1` (centres unmarked) [compound 248]: “˜B (moderate broodsize (100-250 progeny))”; for `CCN(CC)C(=O)C1CCCN(c2nc(NCc3ccc(C(F)(F)F)cc3)ns2)C1` (centres unmarked) [compound 249]: “˜B (moderate broodsize (100-250 progeny))”.

Still in this experiment, the particulars now being: dose response, dilution V3, day 5.
For the molecule `CN(CCc1ccccc1)c1nc(NCCc2ccc(F)cc2)ns1` [compound 243], the “5 Day Visual Score V3” value is given as “OK (no effect (˜1000+ progeny))”.
As for `CC1(C)CC(O)CC(C)(CNc2nsc(N3CCN(c4ccc(F)cc4)CC3)n2)C1` (centres unmarked) [compound 244], the “5 Day Visual Score V3” value is “< (reduced broodsize (250-500 progeny))”.
On the same count and under the same terms, the same measure for `CC1CC(C)CN(c2nc(NCc3c(F)cccc3F)ns2)C1` (centres unmarked) [compound 245]: “< (reduced broodsize (250-500 progeny))”.
The same measure, in the same setting: for `Fc1cccc(F)c1CNc1nsc(N2CCN(c3cccc(C(F)(F)F)c3)CC2)n1` [compound 246] the value was “OK (no effect (˜1000+ progeny))”; for `CC1CCN(c2nc(NCc3ccc(C(F)(F)F)cc3)ns2)CC1` [compound 247], “OK (no effect (˜1000+ progeny))”; for `CC1CC(C)CN(c2nc(NCc3ccc(C(F)(F)F)cc3)ns2)C1` (centres unmarked) [compound 248], “< (reduced broodsize (250-500 progeny))”.
On the same count and under the same terms, for `CCN(CC)C(=O)C1CCCN(c2nc(NCc3ccc(C(F)(F)F)cc3)ns2)C1` (centres unmarked) [compound 249] the value was “OK (no effect (˜1000+ progeny))”.

Still in this experiment, the particulars now being: dose response, dilution V4, day 5.
For `CN(CCc1ccccc1)c1nc(NCCc2ccc(F)cc2)ns1` [compound 243], the “5 Day Visual Score V4” value is listed as “OK (no effect (˜1000+ progeny))”.
The same measure, in the same setting: the same measure for `CC1(C)CC(O)CC(C)(CNc2nsc(N3CCN(c4ccc(F)cc4)CC3)n2)C1` (centres unmarked) [compound 244]: “OK (no effect (˜1000+ progeny))”.
On the same count and under the same terms, for `CC1CC(C)CN(c2nc(NCc3c(F)cccc3F)ns2)C1` (centres unmarked) [compound 245] the value was “OK (no effect (˜1000+ progeny))”.
On to `Fc1cccc(F)c1CNc1nsc(N2CCN(c3cccc(C(F)(F)F)c3)CC2)n1` [compound 246], for which the “5 Day Visual Score V4” value is listed as “OK (no effect (˜1000+ progeny))”.
Same read-out and setting: for `CC1CCN(c2nc(NCc3ccc(C(F)(F)F)cc3)ns2)CC1` [compound 247] the value was “OK (no effect (˜1000+ progeny))”; for `CC1CC(C)CN(c2nc(NCc3ccc(C(F)(F)F)cc3)ns2)C1` (centres unmarked) [compound 248], “OK (no effect (˜1000+ progeny))”.
`CCN(CC)C(=O)C1CCCN(c2nc(NCc3ccc(C(F)(F)F)cc3)ns2)C1` (centres unmarked) [compound 249]: the “5 Day Visual Score V4” value is “OK (no effect (˜1000+ progeny))”.

The experiment is the same for the next values; noted with them: dose response, dilution V5, day 5.
As for `CN(CCc1ccccc1)c1nc(NCCc2ccc(F)cc2)ns1` [compound 243], the “5 Day Visual Score V5” value is listed as “OK (no effect (˜1000+ progeny))”.
With `CC1(C)CC(O)CC(C)(CNc2nsc(N3CCN(c4ccc(F)cc4)CC3)n2)C1` (centres unmarked) [compound 244], the “5 Day Visual Score V5” value is “OK (no effect (˜1000+ progeny))”.
The same measure, in the same setting: the same measure for `CC1CC(C)CN(c2nc(NCc3c(F)cccc3F)ns2)C1` (centres unmarked) [compound 245]: “OK (no effect (˜1000+ progeny))”; for `Fc1cccc(F)c1CNc1nsc(N2CCN(c3cccc(C(F)(F)F)c3)CC2)n1` [compound 246]: “OK (no effect (˜1000+ progeny))”.
Same read-out and setting: the same measure for `CC1CCN(c2nc(NCc3ccc(C(F)(F)F)cc3)ns2)CC1` [compound 247]: “OK (no effect (˜1000+ progeny))”; for `CC1CC(C)CN(c2nc(NCc3ccc(C(F)(F)F)cc3)ns2)C1` (centres unmarked) [compound 248]: “OK (no effect (˜1000+ progeny))”; for `CCN(CC)C(=O)C1CCCN(c2nc(NCc3ccc(C(F)(F)F)cc3)ns2)C1` (centres unmarked) [compound 249]: “OK (no effect (˜1000+ progeny))”.

Staying with this experiment, now noted: dose response, dilution V6, day 5.
For the molecule `CN(CCc1ccccc1)c1nc(NCCc2ccc(F)cc2)ns1` [compound 243], the “5 Day Visual Score V6” value is on record as “OK (no effect (˜1000+ progeny))”.
Still for that read-out and setting: for `CC1(C)CC(O)CC(C)(CNc2nsc(N3CCN(c4ccc(F)cc4)CC3)n2)C1` (centres unmarked) [compound 244] the value was “OK (no effect (˜1000+ progeny))”; for `CC1CC(C)CN(c2nc(NCc3c(F)cccc3F)ns2)C1` (centres unmarked) [compound 245], “OK (no effect (˜1000+ progeny))”; for `Fc1cccc(F)c1CNc1nsc(N2CCN(c3cccc(C(F)(F)F)c3)CC2)n1` [compound 246], “OK (no effect (˜1000+ progeny))”.
As to `CC1CCN(c2nc(NCc3ccc(C(F)(F)F)cc3)ns2)CC1` [compound 247], the “5 Day Visual Score V6” value is reported as “OK (no effect (˜1000+ progeny))”.
For `CC1CC(C)CN(c2nc(NCc3ccc(C(F)(F)F)cc3)ns2)C1` (centres unmarked) [compound 248], the “5 Day Visual Score V6” value is reported as “OK (no effect (˜1000+ progeny))”.
On to `CCN(CC)C(=O)C1CCCN(c2nc(NCc3ccc(C(F)(F)F)cc3)ns2)C1` (centres unmarked) [compound 249], for which the “5 Day Visual Score V6” value is “OK (no effect (˜1000+ progeny))”.
